How the values were obtained:
[1] = Solubility in purified water; details: vortex 5 minutes
From the text: Respective salt and base forms of betamethasone and dexamethasone were weighed and transferred in the glass test tube.

[2] = cited from earlier work
[3] = test system: ataxia symptoms in children with AT; details: cited from earlier work
[4] = test system: neurological symptoms in ataxia telangiectasia; details: 0.1 mg/kg/day, cited from earlier work
[5] = comparison among glucocorticoids; cited from earlier work

For `C[C@H]1CC2C3CCC4=CC(=O)C=C[C@]4(C)[C@@]3(F)[C@@H](O)C[C@]2(C)[C@@]1(O)C(=O)COP(=O)(O)O` (stereo partly drawn) [Betamethasone disodium phosphate, 9-Fluoro-11β,17,21-trihydroxy-16β-methylpregna-1,4-diene-3,20-dione 21-(disodium phosphate)], the “Solubility in purified water” value ([1]; Concentration 0.25 mg/0.14 ml) was “Soluble”, the “Solubility in purified water” value ([1]; Concentration 0.50 mg/0.14 ml) was “Soluble” and the “Solubility in purified water” value ([1]; Concentration 1.00 mg/0.14 ml) was “Soluble”. For the same compound, the “Solubility in purified water” value ([1]; Concentration 1.50 mg/0.14 ml) was “Soluble”, the “Solubility in purified water” value ([1]; Concentration 2.00 mg/0.14 ml) was “Soluble” and the “Solubility in purified water” value ([1]; Concentration 4.00 mg/0.14 ml) was “Soluble”. For the same compound, the “Solubility in purified water” value ([1]; Concentration 8.00 mg/0.14 ml) was “Soluble”, the “solubility (in words)” value [2] was “soluble” and the “stability in aqueous solution” value ([2]; strongly influenced by storage temperature) was “very low”.

With `C[C@@H]1C[C@H]2[C@@H]3CCC4=CC(=O)C=C[C@]4(C)[C@@]3(F)[C@@H](O)C[C@]2(C)[C@@]1(O)C(=O)COP(=O)([O-])[O-].[Na+].[Na+]` [Dexamethasone disodium phosphate] the “Solubility in purified water” value ([1]; Concentration 1.00 mg/0.14 ml) was “Soluble”, the “Solubility in purified water” value ([1]; Concentration 2.00 mg/0.14 ml) was “Soluble” and the “Solubility in purified water” value ([1]; Concentration 4.00 mg/0.14 ml) was “Soluble”. The “Solubility in purified water” value ([1]; Concentration 8.00 mg/0.14 ml) was “Soluble”.

For `C[C@H]1C[C@H]2[C@@H]3CCC4=CC(=O)C=C[C@]4(C)[C@@]3(F)[C@@H](O)C[C@]2(C)[C@@]1(O)C(=O)CO` [betamethasone], the “Solubility in purified water” value ([1]; Concentration 0.25 mg/0.14 ml) is listed as “Not Soluble”, the “patients with moon face” value ([3]; 13 children) is listed as 8 patients and the “patients with small increases in body weight” value ([3]; 13 children) is listed as 12 patients. The “adverse events in the trial” value ([3]; in vivo) was “minimal”, the “change in phenotypic appearance (adverse effect)” value ([4]; 4 weeks) was “moon face” and the “body weight at 4 weeks” value ([4]; from 15.5 kg) was 19.0 kg.

With `C[C@@H]1C[C@H]2[C@@H]3CCC4=CC(=O)C=C[C@]4(C)[C@@]3(F)[C@@H](O)C[C@]2(C)[C@@]1(O)C(=O)CO` [dexamethasone] the “Solubility in purified water” value ([1]; Concentration 0.25 mg/0.14 ml) was “Not Soluble”.

For `C[C@]12CCC(=O)C=C1CC[C@@H]1[C@@H]2[C@@H](O)C[C@@]2(C)[C@H]1CC[C@]2(O)C(=O)CO` [hydrocortisone], the equivalent mg dosage [5] is given as 20 mg.

In the case of `C[C@]12C=CC(=O)C=C1CC[C@@H]1[C@@H]2[C@@H](O)C[C@@]2(C)[C@H]1CC[C@]2(O)C(=O)CO` [prednisolone], the equivalent mg dosage [5] is given as 5 mg.

In the case of `C[C@]12C=CC(=O)C=C1CC[C@H]1[C@@H]3C[C@@H](O)[C@](O)(C(=O)CO)[C@@]3(C)C[C@H](O)[C@@]12F` [triamcinolone], the equivalent mg dosage [5] is listed as 4 mg.

Reference: US11291672B2, “Betamethasone oral spray formulation and method of use to treat ataxia” (GRACE THERAPEUTICS LLC, priority 2016, dated 2022)
